Source: patent US9309283B2, “Prodrugs of peptide epoxy ketone protease inhibitors” (Onyx Therapeutics, Inc., priority 2012, dated 2016)
Each block holds one molecule with its values, some of them ahead of it.

Tests used:
c20s = c20s (Homo sapiens, UniProt P20618+P28074); assay: Purified PI IC50, c20s; type: biochemical
i20s = i20s (Homo sapiens, UniProt P20618+P28062); assay: Purified PI IC50, i20s; type: biochemical
[1] = Conversion to drug in human plasma (%) over time; type: in vitro ADME
[2] = Buffer conversion rates of prodrugs to Compound B; type: physicochemical
[3] = Conversion of prodrugs by Human Liver S9; type: in vitro ADME
[4] = Pharmacokinetic comparison of Compound A and prodrug in mouse; type: in vivo; details: dose 5 mg/kg

Compound: COCCOCCOCCOCCC(=O)N/N=C(/[C@H](CC(C)C)NC(=O)[C@H](Cc1ccccc1)NC(=O)[C@H](CC(C)C)NC(=O)[C@H](CCc1ccccc1)NC(=O)CN1CCOCC1)[C@@]1(C)CO1
Purified PI IC50 Slope c20s (c20s; Table G, * = did not converge): inactive

Compound: CO/N=C(/[C@H](CC(C)C)NC(=O)[C@H](Cc1ccccc1)NC(=O)[C@H](CC(C)C)NC(=O)[C@H](CCc1ccccc1)NC(=O)CN1CCOCC1)[C@@]1(C)CO1
Purified PI IC50 Slope i20s (i20s; Table G, * = did not converge): inactive

Compound: CC(C)C[C@H](NC(=O)[C@H](CCc1ccccc1)NC(=O)CN1CCOCC1)C(=O)N[C@@H](Cc1ccccc1)C(=O)N[C@@H](CC(C)C)/C(=N/OCC(=O)O)[C@@]1(C)CO1
Purified PI IC50 Slope c20s (c20s; Table G, * = did not converge): inactive | Purified PI IC50 Slope i20s (i20s; Table G, * = did not converge): inactive

Compound: CC(C)C[C@H](NC(=O)[C@H](CCc1ccccc1)NC(=O)CN1CCOCC1)C(=O)N[C@@H](Cc1ccccc1)C(=O)N[C@@H](CC(C)C)C(=O)[C@](C)(O)COC(=O)c1c(Cl)cccc1Cl
Purified PI IC50 Slope c20s (c20s; Table G, * = did not converge): inactive

Compound: COC[C@H](NC(=O)c1cnc(C)s1)C(=O)N[C@@H](COC)C(=O)N[C@@H](Cc1ccccc1)/C(=N/OC)[C@@]1(C)CO1
Purified PI IC50 Slope c20s (c20s; Table H): inactive | Purified PI IC50 Slope i20s (i20s; Table H): inactive | Purified PI IC50 60 minute point i20s (i20s; Table H): inactive

Compound: COC[C@H](NC(=O)c1cnc(C)s1)C(=O)N[C@@H](COC)C(=O)N[C@@H](Cc1ccccc1)C(=O)[C@](C)(O)COP(=O)(c1ccccc1)c1ccccc1
Purified PI IC50 Slope c20s (c20s; Table H): inactive | Purified PI IC50 60 minute point c20s (c20s; Table H): inactive | Purified PI IC50 Slope i20s (i20s; Table H): inactive | Purified PI IC50 60 minute point i20s (i20s; Table H): inactive

Compound: COCCOCCOCCOCCOCCOCCOCCOCCn1cc(CNC(=O)c2cccc(S(=O)(=O)OCC(C)(O)C(=O)[C@H](CC(C)C)NC(=O)[C@H](Cc3ccccc3)NC(=O)[C@H](CC(C)C)NC(=O)[C@H](CCc3ccccc3)NC(=O)CN3CCOCC3)c2)nn1 (stereo partly drawn)
Conversion to drug in Human Plasma ([1]; 2 min): 7% | Conversion to drug in Human Plasma ([1]; 30 min): 63% | Conversion to drug in Human Plasma ([1]; 1 hr): 100% | Conversion to drug in Human Plasma ([1]; 2 hr): 95% | Conversion to drug in Human Plasma ([1]; 4 hr): 80%

Compound: COCCOCCOCCOCCOCCOCCOCCOCCn1cc(COCCCS(=O)(=O)OCC(C)(O)C(=O)[C@H](CC(C)C)NC(=O)[C@H](Cc2ccccc2)NC(=O)[C@H](CC(C)C)NC(=O)[C@H](CCc2ccccc2)NC(=O)CN2CCOCC2)nn1 (stereo partly drawn)
Conversion to drug in Human Plasma ([1]; 2 min): 2% | Conversion to drug in Human Plasma ([1]; 30 min): 18% | Conversion to drug in Human Plasma ([1]; 1 hr): 58% | Conversion to drug in Human Plasma ([1]; 2 hr): 90% | Conversion to drug in Human Plasma ([1]; 4 hr): 80%

Compound: COC[C@H](NC(=O)c1cnc(C)s1)C(=O)N[C@@H](COC)C(=O)N[C@@H](Cc1ccccc1)C(=O)[C@](C)(O)COS(=O)(=O)c1ccc(F)c(F)c1 [20-5]
Buffer pH = 7.4 % Conversion @ 1 hour [2]: 13.2%

Compound: CCCCCCCCS(=O)(=O)OC[C@@](C)(O)C(=O)[C@H](Cc1ccccc1)NC(=O)[C@H](COC)NC(=O)[C@H](COC)NC(=O)c1cnc(C)s1 [20-8]
Buffer pH = 7.4 % Conversion @ 1 hour [2]: 10.8%

Compound: COC[C@H](NC(=O)c1cnc(C)s1)C(=O)N[C@@H](COC)C(=O)N[C@@H](Cc1ccccc1)C(=O)[C@@](C)(CI)OC(=O)CCCCSC(C)=O [20-10]
Human Liver S9 % Conversion @ 1 hour [3]: 3%

Compound: COC[C@H](NC(=O)c1cnc(C)s1)C(=O)N[C@@H](COC)C(=O)N[C@@H](Cc1ccccc1)C(=O)[C@@](C)(CI)OC(=O)OCc1oc(=O)oc1C [20-15]
Human Liver S9 % Conversion @ 1 hour [3]: 30%

Compound: CCOC(=O)CCC(=O)O[C@](C)(CI)C(=O)[C@H](Cc1ccccc1)NC(=O)[C@H](COC)NC(=O)[C@H](COC)NC(=O)c1cnc(C)s1 [20-17]
Human Liver S9 % Conversion @ 1 hour [3]: 1%

Compound: COC[C@H](NC(=O)c1cnc(C)s1)C(=O)N[C@@H](COC)C(=O)N[C@@H](Cc1ccccc1)C(=O)[C@@](C)(CI)OC(=O)COc1ccccc1 [20-19]
Human Liver S9 % Conversion @ 1 hour [3]: 7%

Compound: COC[C@H](NC(=O)c1cnc(C)s1)C(=O)N[C@@H](COC)C(=O)N[C@@H](Cc1ccccc1)C(=O)[C@@](C)(CI)OC(=O)OCc1ccc(OC(C)=O)cc1 [20-22]
Human Liver S9 % Conversion @ 1 hour [3]: 28%

Compound: COC[C@H](NC(=O)c1cnc(C)s1)C(=O)N[C@@H](COC)C(=O)N[C@@H](Cc1ccccc1)C(=O)[C@@](C)(CI)OC(=O)Oc1ccccc1 [20-26]
Human Liver S9 % Conversion @ 1 hour [3]: 32%

Compound: CC(C)C[C@H](NC(=O)[C@H](CCc1ccccc1)NC(=O)CN1CCOCC1)C(=O)N[C@@H](Cc1ccccc1)C(=O)N[C@@H](CC(C)C)C(=O)[C@@]1(C)CO1 [Cmpd A, (S)-4-methyl-N—((S)-1-(((S)-4-methyl-1-((R)-2-methyloxiran-2-yl)-1-oxopentan-2-yl)amino)-1-oxo-3-phenylpropan-2-yl)-2-((S)-2-(2-morpholinoacetamido)-4-phenylbutanamido)pentanamide]
[Cmpd A] ([4]; time 1 hr): 0.008 µM | [Cmpd A] ([4]; time 4 hr): BLOQ | [Cmpd A] ([4]; time 6 hr): BLOQ | [Cmpd A] ([4]; time 24 hr): BLOQ

Compound: COC[C@H](NC(=O)c1cnc(C)s1)C(=O)N[C@@H](COC)C(=O)N[C@@H](Cc1ccccc1)C(=O)[C@](C)(O)COS(=O)(=O)c1ccc(C)cc1 [compound 21]
Buffer pH = 7.4 % Conversion @ 1 hour [2]: 20.3%

Compound: COC[C@H](NC(=O)c1cnc(C)s1)C(=O)N[C@@H](COC)C(=O)N[C@@H](Cc1ccccc1)C(=O)[C@](C)(O)COS(=O)(=O)C1CCOCC1 [compound 22]
Buffer pH = 7.4 % Conversion @ 1 hour [2]: 9.8%

Compound: COC[C@H](NC(=O)c1cnc(C)s1)C(=O)N[C@@H](COC)C(=O)N[C@@H](Cc1ccccc1)C(=O)[C@](C)(O)COS(=O)(=O)Cc1ccccc1 [compound 23]
Buffer pH = 7.4 % Conversion @ 1 hour [2]: 9.6%

Compound: COC[C@H](NC(=O)c1cnc(C)s1)C(=O)N[C@@H](COC)C(=O)N[C@@H](Cc1ccccc1)C(=O)[C@](C)(O)COS(=O)(=O)Cc1ccccc1 [drawing 371]
Purified PI IC50 Slope i20s (i20s; Table H): inactive

The next lines start with the values.

Purified PI IC50 Slope c20s (c20s; Table H): inactive | Purified PI IC50 60 minute point c20s (c20s; Table H): inactive | Purified PI IC50 Slope i20s (i20s; Table H): inactive | Purified PI IC50 60 minute point i20s (i20s; Table H): inactive
Compound: COC[C@H](NC(=O)c1cnc(C)s1)C(=O)N[C@@H](COC)C(=O)N[C@@H](Cc1ccccc1)C(=O)[C@](C)(O)COC(C)=O

Purified PI IC50 Slope c20s (c20s; Table H): inactive | Purified PI IC50 60 minute point c20s (c20s; Table H): inactive | Purified PI IC50 Slope i20s (i20s; Table H): inactive | Purified PI IC50 60 minute point i20s (i20s; Table H): inactive
Compound: COC[C@H](NC(=O)c1cnc(C)s1)C(=O)N[C@@H](COC)C(=O)N[C@@H](Cc1ccccc1)C(=O)[C@](C)(O)COC(=O)c1c(Cl)cccc1Cl

Buffer pH = 7.4 % Conversion @ 1 hour [2]: 24%
Compound: COC[C@H](NC(=O)c1cnc(C)s1)C(=O)N[C@@H](COC)C(=O)N[C@@H](Cc1ccccc1)C(=O)[C@](C)(O)CI [20-1]

Buffer pH = 7.4 % Conversion @ 1 hour [2]: 0%
Compound: COC[C@H](NC(=O)c1cnc(C)s1)C(=O)N[C@@H](COC)C(=O)N[C@@H](Cc1ccccc1)C(=O)[C@](C)(O)CCl [20-2]

Buffer pH = 7.4 % Conversion @ 1 hour [2]: 23%
Compound: COC[C@H](NC(=O)c1cnc(C)s1)C(=O)N[C@@H](COC)C(=O)N[C@@H](Cc1ccccc1)C(=O)[C@](C)(O)CBr [20-3]

Buffer pH = 7.4 % Conversion @ 1 hour [2]: 21.2%
Compound: COC[C@H](NC(=O)c1cnc(C)s1)C(=O)N[C@@H](COC)C(=O)N[C@@H](Cc1ccccc1)C(=O)[C@](C)(O)COS(=O)(=O)CC(F)(F)F [20-4]

Buffer pH = 7.4 % Conversion @ 1 hour [2]: 5.7%
Compound: COC[C@H](NC(=O)c1cnc(C)s1)C(=O)N[C@@H](COC)C(=O)N[C@@H](Cc1ccccc1)C(=O)[C@](C)(O)COS(=O)(=O)CC(F)F [20-6]

Buffer pH = 7.4 % Conversion @ 1 hour [2]: 4.2%
Compound: CCCCS(=O)(=O)OC[C@@](C)(O)C(=O)[C@H](Cc1ccccc1)NC(=O)[C@H](COC)NC(=O)[C@H](COC)NC(=O)c1cnc(C)s1 [20-7]

Human Liver S9 % Conversion @ 1 hour [3]: 11%
Compound: COC[C@H](NC(=O)c1cnc(C)s1)C(=O)N[C@@H](COC)C(=O)N[C@@H](Cc1ccccc1)C(=O)[C@@](C)(CI)OC(=O)CCCOC(C)=O [20-13]

Human Liver S9 % Conversion @ 1 hour [3]: 24%
Compound: CCOC(=O)C(=O)O[C@](C)(CI)C(=O)[C@H](Cc1ccccc1)NC(=O)[C@H](COC)NC(=O)[C@H](COC)NC(=O)c1cnc(C)s1 [20-16]

Human Liver S9 % Conversion @ 1 hour [3]: 22%
Compound: COC[C@H](NC(=O)c1cnc(C)s1)C(=O)N[C@@H](COC)C(=O)N[C@@H](Cc1ccccc1)C(=O)[C@@](C)(CI)OC(=O)CCl [20-23]

Human Liver S9 % Conversion @ 1 hour [3]: 29%
Compound: COC[C@H](NC(=O)c1cnc(C)s1)C(=O)N[C@@H](COC)C(=O)N[C@@H](Cc1ccccc1)C(=O)[C@@](C)(CI)OC=O [20-24]

Human Liver S9 % Conversion @ 1 hour [3]: 14%
Compound: CCOC(=O)O[C@](C)(CI)C(=O)[C@H](Cc1ccccc1)NC(=O)[C@H](COC)NC(=O)[C@H](COC)NC(=O)c1cnc(C)s1 [20-25]
